Reference: patent publication US5686486A, “4-hydroxy-benzopyran-2-ones and 4-hydroxy-cycloalkyl[b]pyran-2-ones useful to treat retroviral infections” (priority 1995, dated 1997)
Read-outs that look alike come from different tables or passages of the source.

Target: HIV-1 protease (Human immunodeficiency virus type 1 group M subtype B, UniProt P04585)
Assay: biochemical
Conditions: for inhibition at 0.123 µM: read-out: HIV-1 Protease % Inhib, dose 0.123 uM; for inhibition at 0.37 µM: read-out: HIV-1 Protease % Inhib, dose 0.370 uM
How it was run: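 Percent inhibition derived from fluorescent cleavage product separated by filtration after streptavidin-bead capture of intact biotin/FITC substrate. Reaction: enzyme (10 μl, 0.1 μM stock) with substrate (20 μl, 0.2 μM stock) and compound, 1 h at room temperature in dark, pH 5.5 acetate buffer with 1.0 M NaCl and 0.05% NP-40.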

[1] = read-out: HIV-1 Protease % Inhib, dose 1.100 uM
[2] = read-out: HIV-1 Protease % Inhib, dose 3.300 uM
[3] = read-out: HIV-1 Protease % Inhib, dose 10.000 uM
[4] = read-out: HIV-1 Protease % Inhib, dose 30.000 uM
[5] = dose 1.100 uM, read-out: HIV-1 Protease % Inhib
[6] = dose 3.300 uM, read-out: HIV-1 Protease % Inhib
[7] = dose 10.000 uM, read-out: HIV-1 Protease % Inhib
[8] = dose 30.000 uM, read-out: HIV-1 Protease % Inhib

Compound: O=C(O)c1cccc(S(=O)(=O)Nc2cccc(C(c3c(O)c4c(oc3=O)CCCCCC4)C3CC3)c2)c1 (centres unmarked) [Example 292, 3-[[[3-[Cyclopropyl(5,6,7,8,9,10-hexahydro4-hydroxy-2-oxo-2H-cycloocta[b]pyran-3-yl)methyl]phenyl]amino]sulfonyl]-benzoic acid]
- inhibition at 0.123 µM: 74.4%
- inhibition at 0.37 µM: 104%
- inhibition at 1.1 µM [1]: 111%
- inhibition at 3.3 µM [2]: 125%
- inhibition at 10 µM [3]: 115%
- inhibition at 30 µM [4]: 111%

Compound: O=c1oc2c(c(O)c1C(c1cccc(NS(=O)(=O)c3ccccc3Cl)c1)C1CC1)CCCCCC2 (centres unmarked) [Example 293, 2-Chloro-N-[3-[cyclopropyl(5,6,7,8,9,10-hexahydro-4-hydroxy-2-oxo-2H-cycloocta[b]pyran-3-yl)methyl]phenyl]-benzenesulfonamide]
- inhibition at 0.123 µM: 54.9%
- inhibition at 0.37 µM: 82.4%
- inhibition at 1.1 µM [1]: 96.8%
- inhibition at 3.3 µM [2]: 107%
- inhibition at 10 µM [3]: 105%
- inhibition at 30 µM [4]: 109%

Compound: O=c1oc2c(c(O)c1C(c1cccc(NS(=O)(=O)c3c(Cl)cccc3Cl)c1)C1CC1)CCCCCC2 (centres unmarked) [Example 295, 2,6-Dichloro-N-[3-[cyclopropyl(5,6,7,8,9,10-hexahydro-4-hydroxy-2'-oxo-2H-cycloocta[b]pyran-3-yl)methyl]phenyl]-benzenesulfonamide]
- inhibition at 1.1 µM [5]: 25.9%
- inhibition at 3.3 µM [6]: 57%
- inhibition at 10 µM [7]: 87.5%
- inhibition at 30 µM [8]: 100%

Compound: Cn1cnc(S(=O)(=O)Nc2cccc([C@@H](c3c(O)c4c(oc3=O)CCCCCC4)C3CC3)c2)c1 [Example 297, N-[3-[Cyclopropyl(5,6,7,8,9,10-hexahydro-4-hydroxy-2-oxo-2H-cycloocta-3-yl)methyl]phenyl]-1-methyl-(S)-1H-imidazole-4-sulfonamide]
- inhibition at 0.123 µM: 72%
- inhibition at 0.37 µM: 86%
- inhibition at 1.1 µM [1]: 101%
- inhibition at 3.3 µM [2]: 99.8%
- inhibition at 10 µM [3]: 102%
- inhibition at 30 µM [4]: 99.5%

Compound: O=c1oc2c(c(O)c1C(c1cccc(NS(=O)(=O)c3ccc(I)cc3)c1)C1CC1)CCCCCC2 (centres unmarked) [Example 300, N-[3-[Cyclopropyl(5,6,7,8,9,10-hexahydro-4-hydroxy-2-oxo-2H-cycloocta[b]pyran-3-yl)methyl]phenyl]-4-iodo-benzenesulfonamide]
- inhibition at 0.123 µM: 68.8%
- inhibition at 0.37 µM: 92.2%
- inhibition at 1.1 µM [1]: 101%
- inhibition at 3.3 µM [2]: 102%
- inhibition at 10 µM [3]: 108%
- inhibition at 30 µM [4]: 108%

Compound: O=c1oc2c(c(O)c1C(c1cccc(NS(=O)(=O)c3ccc(Cl)cc3Cl)c1)C1CC1)CCCCCC2 (centres unmarked) [Example 305, 2,4-Dichloro-N-[3-[cyclopropyl(5,6,7,8,9,10-hexahydro-4-hydroxy-2'-oxo-2H-cycloocta[b]pyran-3-yl)methyl]phenyl]-benzenesulfonamide]
- inhibition at 0.123 µM: 60.4%
- inhibition at 0.37 µM: 86.2%
- inhibition at 1.1 µM [1]: 92.4%
- inhibition at 3.3 µM [2]: 95.2%
- inhibition at 10 µM [3]: 99.8%
- inhibition at 30 µM [4]: 107%

Compound: O=c1oc2c(c(O)c1C(c1cccc(NS(=O)(=O)c3c(Cl)cc(Cl)cc3Cl)c1)C1CC1)CCCCCC2 (centres unmarked) [Example 306, 2,4,6-Trichloro-N-[3-[cyclopropyl(5,6,7,8,9,10-hexahydro-4-hydroxy-2-oxo-2H-cycloocta[b]pyran-3-yl)methyl]phenyl]-benzenesulfonamide]
- inhibition at 1.1 µM [5]: 24.4%
- inhibition at 3.3 µM [6]: 53.2%
- inhibition at 10 µM [7]: 74.5%
- inhibition at 30 µM [8]: 86.2%

Compound: CS(=O)(=O)Nc1cccc(C(c2c(O)c3c(oc2=O)CCCCCC3)C2CC2)c1 (centres unmarked) [Example 317, N-[3-[Cyclopropyl(5,6,7,8,9,10-hexahydro-4-hydroxy-2-oxo-2H-cycloocta[b]pyran-3-yl)methyl]phenyl]-methanesulfonamide]
- inhibition at 0.123 µM: 27.8%
- inhibition at 0.37 µM: 46.7%
- inhibition at 1.1 µM [1]: 81.7%
- inhibition at 3.3 µM [2]: 101%
- inhibition at 10 µM [3]: 102%
- inhibition at 30 µM [4]: 113%
